The structures appear in SMILES notation. Some results are limits rather than exact numbers.

Human cGAS amino acids 155-522, sequence (Q8N884 157-522): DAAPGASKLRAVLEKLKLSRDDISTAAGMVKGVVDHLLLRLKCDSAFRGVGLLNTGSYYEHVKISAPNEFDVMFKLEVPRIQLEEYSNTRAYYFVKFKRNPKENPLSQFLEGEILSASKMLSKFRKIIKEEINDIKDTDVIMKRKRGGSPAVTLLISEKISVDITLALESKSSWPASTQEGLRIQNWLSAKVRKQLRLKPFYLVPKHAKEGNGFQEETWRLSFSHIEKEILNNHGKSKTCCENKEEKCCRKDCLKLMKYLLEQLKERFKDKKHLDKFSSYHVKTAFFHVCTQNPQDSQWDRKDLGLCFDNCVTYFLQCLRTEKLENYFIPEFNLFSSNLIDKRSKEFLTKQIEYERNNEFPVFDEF

This assay has as its target Human cGAS amino acids 155-522 (Homo sapiens (Human), UniProt Q8N884). Nature of the assay: cGAS biochemical activity assay (ATP remaining, Kinase-Glo Max luminescence). Particulars: human cGAS 155-522, ATP remaining (Kinase-Glo Max); read-out: cGAS IC50. A general note: Kinase-Glo reads ATP consumption through a luciferase reaction.
Take `COc1cccc2oc(-c3c(C)[nH]c4c(-c5ccccc5)c(C#CC5CC5)nn4c3=O)nc12` [Compound C1228, 2-(cyclopropylethynyl)-6-(4-methoxybenzo[d]oxazol-2-yl)-5-methyl-3-phenylpyrazolo[1,5-a]pyrimidin-7(4H)-one]: the IC50 was in the range of 20 to 250 µM.
To `COc1cccc2oc(-c3c(C)[nH]c4c(-c5ccccn5)c(C(F)(F)F)nn4c3=O)nc12` [Compound C1127, 6-(4-methoxybenzo[d]oxazol-2-yl)-5-methyl-3-(pyridin-2-yl)-2-(trifluoromethyl)pyrazolo[1,5-a]pyrimidin-7(4H)-one] belongs 20 to 250 µM.
For `COc1cccc2oc(-c3c(C)[nH]c4c(-c5ccc(C#N)cc5)c(C(F)(F)F)nn4c3=O)nc12` [Compound C1164, 4-(6-(4-methoxybenzo[d]oxazol-2-yl)-5-methyl-7-oxo-2-(trifluoromethyl)-4,7-dihydropyrazolo[1,5-a]pyrimidin-3-yl)benzonitrile], the IC50 is over 250 µM.
As to `COc1c(F)cccc1NC(=O)c1c(C)[nH]c2c(-c3ccccc3)c(C(F)(F)F)nn2c1=O` [Compound A1137, N-(3-fluoro-2-methoxyphenyl)-5-methyl-7-oxo-3-phenyl-2-(trifluoromethyl)-4,7-dihydropyrazolo[1,5-a]pyrimidine-6-carboxamide], the IC50 fell in the range of 20 to 250 µM.
Turning to `Cc1[nH]c2c(-c3ccccc3)c(C(F)(F)F)nn2c(=O)c1C(=O)N1CCOCC1` [Compound A1004, 5-methyl-6-(morpholine-4-carbonyl)-3-phenyl-2-(trifluoromethyl)pyrazolo[1,5-a]pyrimidin-7(4H)-one], the IC50 was over 250 µM.
On to `Cc1[nH]c2c(-c3ccccc3)c(C(F)(F)F)nn2c(=O)c1-c1ccncc1` [Compound C1001, 5-methyl-3-phenyl-6-(pyridin-4-yl)-2-(trifluoromethyl)pyrazolo[1,5-a]pyrimidin-7(4H)-one], for which the IC50 lay in the range of 20 to 250 µM.
With `Cc1nnc(Cc2c(C)[nH]c3c(-c4ccccc4)c(C(F)(F)F)nn3c2=O)o1` [Compound D1032, 5-methyl-6-((5-methyl-1,3,4-oxadiazol-2-yl)methyl)-3-phenyl-2-(trifluoromethyl)pyrazolo[1,5-a]pyrimidin-7(4H)-one], the IC50 was 20 to 250 µM.
As to `COc1cccn2cc(-c3c(C)[nH]c4c(-c5ccccc5)c(C(F)(F)F)nn4c3=O)nc12` [Compound C1044, 6-(8-methoxyimidazo[1,2-a]pyridin-2-yl)-5-methyl-3-phenyl-2-(trifluoromethyl)pyrazolo[1,5-a]pyrimidin-7(4H)-one], the IC50 was under 20 µM.
On to `Cc1[nH]c2c(-c3ccccc3)c(C(F)(F)F)nn2c(=O)c1-c1nc(C(N)=O)co1` [Compound C1102, 2-(5-methyl-7-oxo-3-phenyl-2-(trifluoromethyl)-4,7-dihydropyrazolo[1,5-a]pyrimidin-6-yl)oxazole-4-carboxamide], for which the IC50 was 20 to 250 µM.
As to `Cc1[nH]c2c(C(C)C)c(C(F)(F)F)nn2c(=O)c1Cc1ccccc1` [Compound C1268, 6-benzyl-3-isopropyl-5-methyl-2-(trifluoromethyl)pyrazolo[1,5-a]pyrimidin-7(4H)-one], the IC50 is over 250 µM.
As for `Cc1[nH]c2c(-c3ccccc3)c(C(F)(F)F)nn2c(=O)c1-c1nnc(C2CCCN(C(=O)OC(C)(C)C)C2)o1` (stereo not shown) [Compound D1031, tert-butyl 3-(5-(5-methyl-7-oxo-3-phenyl-2-(trifluoromethyl)-4,7-dihydropyrazolo[1,5-a]pyrimidin-6-yl)-1,3,4-oxadiazol-2-yl)piperidine-1-carboxylate], the IC50 was in the range of 20 to 250 µM.
Turning to `Cc1[nH]c2c(C3CCCC3)c(C(F)(F)F)nn2c(=O)c1Cc1ccccc1` [Compound C1267, 6-benzyl-3-cyclopentyl-5-methyl-2-(trifluoromethyl)pyrazolo[1,5-a]pyrimidin-7(4H)-one], the IC50 is over 250 µM.
As for `Cc1noc(C)c1NC(=O)c1c(C)[nH]c2c(-c3ccccc3)c(C(F)(F)F)nn2c1=O` [Compound A1019, N-(3,5-dimethylisoxazol-4-yl)-5-methyl-7-oxo-3-phenyl-2-(trifluoromethyl)-4,7-dihydropyrazolo[1,5-a]pyrimidine-6-carboxamide], the IC50 is over 250 µM.
`CC(=O)N1CCC(c2nnc(-c3c(C)[nH]c4c(-c5ccccc5)c(C(F)(F)F)nn4c3=O)o2)CC1` [Compound D1054, 6-(5-(1-acetylpiperidin-4-yl)-1,3,4-oxadiazol-2-yl)-5-methyl-3-phenyl-2-(trifluoromethyl)pyrazolo[1,5-a]pyrimidin-7(4H)-one]: the IC50 was 20 to 250 µM.
For the compound `COc1cncc(NC(=O)c2c(C)[nH]c3c(-c4ccccc4)c(C(F)(F)F)nn3c2=O)c1` [Compound A1094, N-(5-methoxypyridin-3-yl)-5-methyl-7-oxo-3-phenyl-2-(trifluoromethyl)-4,7-dihydropyrazolo[1,5-a]pyrimidine-6-carboxamide], the IC50 is under 20 µM.
For the compound `COc1cccc(NC(=O)c2c(C)[nH]c3c(-c4ccccc4)c(SC)nn3c2=O)c1` [Compound A1122, N-(3-methoxyphenyl)-5-methyl-2-(methylthio)-7-oxo-3-phenyl-4,7-dihydropyrazolo[1,5-a]pyrimidine-6-carboxamide], the IC50 fell in the range of 20 to 250 µM.
Consider `COc1cccc2oc(-c3c(C)[nH]c4c(-c5ccccc5)c(C(C)=O)nn4c3=O)nc12` [Compound C1210, 2-acetyl-6-(4-methoxybenzo[d]oxazol-2-yl)-5-methyl-3-phenylpyrazolo[1,5-a]pyrimidin-7(4H)-one], for which the IC50 was under 20 µM.
For the compound `Cc1[nH]c2c(-c3ccccc3)c(C(F)(F)F)nn2c(=O)c1-c1nnc(N2CCCCC2CCNS(C)(=O)=O)o1` (stereo not shown) [Compound D1073, N-(2-(1-(5-(5-methyl-7-oxo-3-phenyl-2-(trifluoromethyl)-4,7-dihydropyrazolo[1,5-a]pyrimidin-6-yl)-1,3,4-oxadiazol-2-yl)piperidin-2-yl)ethyl)methanesulfonamide], the IC50 was under 20 µM.
Regarding `Cc1[nH]c2c(-c3ccccc3)c(C(F)(F)F)nn2c(=O)c1-c1cccnc1` [Compound C1003, 5-methyl-3-phenyl-6-(pyridin-3-yl)-2-(trifluoromethyl)pyrazolo[1,5-a]pyrimidin-7(4H)-one], the IC50 is 20 to 250 µM.
For the compound `COCCn1c(-c2c(C)[nH]c3c(-c4ccccc4)c(C(F)(F)F)nn3c2=O)nc2c(OC)cccc21` [Compound C1200, 6-(4-methoxy-1-(2-methoxyethyl)-1H-benzo[d]imidazol-2-yl)-5-methyl-3-phenyl-2-(trifluoromethyl)pyrazolo[1,5-a]pyrimidin-7(4H)-one], the IC50 lay within 20 to 250 µM.
As for `CC(=O)N1CCC(NC(=O)c2c(C)[nH]c3c(-c4ccccc4)c(C(F)(F)F)nn3c2=O)CC1` [Compound A1027, N-(1-acetylpiperidin-4-yl)-5-methyl-7-oxo-3-phenyl-2-(trifluoromethyl)-4,7-dihydropyrazolo[1,5-a]pyrimidine-6-carboxamide], the IC50 was 20 to 250 µM.
To `COc1cccc2oc(-c3c(C4CCC(C(=O)O)C4)[nH]c4c(-c5ccccc5)c(C(F)(F)F)nn4c3=O)nc12` (stereo not shown) [Compound C1239, 3-(6-(4-methoxybenzo[d]oxazol-2-yl)-7-oxo-3-phenyl-2-(trifluoromethyl)-4,7-dihydropyrazolo[1,5-a]pyrimidin-5-yl)cyclopentane-1-carboxylic acid] belongs under 20 µM.

In general, IC50 refers to the concentration that inhibits the measured activity by half.

(Values after US10738056B2 (Aduro BioTech, Inc., priority 2017, dated 2020).)
